Here are results for two molecules from PMC6511062, “Preclinical candidate for the treatment of visceral leishmaniasis that acts through proteasome inhibition” (Proceedings of the National Academy of Sciences of the …, 2019).

Series [1] can be described thus: 7 day oral repeat-dose rat toxicology and toxicokinetics. Conditions: for tolerability: male rats, oral. On the procedure:
b. 7 day rat toxicology studies
A 7 day oral repeat-dose study in male rats was conducted to determine the toxicity […]
Groups of male rats (4/group toxicity; 3/group […]
up to 7 days by oral gavage. […]

Series [2] relates to L. donovani promastigotes. The series is described as follows: Morphological analysis by transmission EM. The class given is cell-based, Leishmania donovani. Conditions: two times EC50, 6 h. The method, then: Profound morphological changes were evident in parasites treated with compounds from this series. To gain additional insight into these compound-induced changes, L. donovani promastigotes were treated with 7 at a concentration equivalent to two times the established EC50 value for 6 h before analysis by transmission EM. […] In addition, there was a significant accumulation of intracellular vesicles within treated parasites (SI Appendix, Fig. S8). Based on our target identification studies, we reasoned that an inability to recycle key proteins via the proteasome left these parasites overcome by their own waste protein products. […]
95°C for 3 min; 40 cycles of 95°C for 20 s; then 60 °C for 20 s. […] Relative quantification in the tetracycline-induced cell lines were normalized to the un-induced cell line using the […]
Cultures of bloodstream T. brucei and L. donovani promastigotes at starting cell densities of 5 x 105 were incubated with concentrations of compound 7 equivalent to 5x their respective EC50 values. […] After washing, cell densities were adjusted to 5 × 10^5 cells mL, re-suspended in 500 µL of PBS containing 50 µg/mL propidium iodide, 50 µg/mL RNase and 0.1% Triton X-100, incubated at room temperature for 20 min in the dark and analysed using FACSort analytical flow cytometer using Cellquest software (BD Biosciences). j. […]

As for `O=C(Nc1ccc(F)c(-c2ccn3c(N4CCOCC4)cnc3n2)c1)N1CCCC1` [Compound 8], the “margin to the predicted human blood AUC0-24” value in series [1] (300 mg/kg/day) was 37 fold. Further, the tolerability entry in series [1] (1000 mg/kg/day) is reported as “not tolerated”; in series [1] (100 and 300 mg/kg/day, 7 days), “tolerated over the 7 days”. Besides, the “rat 7-d toxicology study outcome” value in series [1] (doses up to 300 mg/kg) was “no significant safety or tolerability liabilities were detected”. Moreover, in series [1] (male, rat, in vivo, 300 mg/kg, 7 days), the safety margin entry is “at least 37 fold”.
Take `O=C(Nc1ccc(F)c(-c2cn3nc(-c4ccccc4)cnc3n2)c1)N1CCCC1` [Compound 7]: the “morphological changes (transmission EM)” value in series [2] is “swelling of promastigotes”.
